Measurements: patent publication US9212196B2, “Hypophosphorous acid derivatives having antihyperalgic activity and biological applications thereof” (UNIVERSITE PARIS DESCARTES, priority 2011, dated 2015)
Counter-ions that a name gives are not always drawn.

Assays:
Assay type in all cases: cell-based
mGlu4 = mGlu4 (Homo sapiens (Human), UniProt Q14833); test: Agonist activity on mGlu4 in transfected HEK293 cells, intracellular calcium release (Fluo4-AM); settings: transfected cells, calcium release; read-out: mGlu4 EC50 μM (n)
Source text: (§1) The EC50's are compared to those of L-AP4 (L-2-amino-4-phosphonobutyric acid) used as a reference.
(§2) Metabotropic glutamate receptors were transiently transfected in HEK293 cells by electroporation as described elsewhere (Brabet I. et al., 1998) and plated in 96-well microplates. The high affinity glutamate transporter EAAC1 was co-transfected with the receptor in order to avoid any influence of glutamate released by the cells in the assay medium. In the experiments carried out by the inventors, Group-III mGluRs were co-transfected with a chimeric G-protein which couples the activation of the receptor to the phospholipase-C (PLC) pathway. Thus receptor activation induces production of inositol phosphate (IP) which in turn induces intracellular Ca^2+ release. Receptor activity was then determined by measurement of the IP production or Ca release as already described (Goudet C. et al., PNAS 2004). For intracellular calcium measurements, cells expressing mGluRs were loaded with Ca2+-sensitive fluorescent dye Fluo-4 AM (Invitrogen, Cergy-Pontoise, France) dissolved in Hanks' balanced salt solution (HBSS, Invitrogen, Cergy-Pontoise, France) containing 2.5 mM Probenicid (Sigma-Aldrich Chemie, Saint-Quentin Fallavier, France) for 1 h at 37° C., then washed and incubated with HBSS containing probenecid. A drug plate was prepared with the various concentrations of agonist to be tested and drug solution was added in each well after 20 s of recording. Fluorescence signals (excitation 485 nm, emission 525 nm) were measured by using the fluorescence microplate reader Flexstation III (Molecular Devices, Saint-Grégoire, France) at sampling intervals of 1.5 s for 60 s. All points are realized in triplicate.
(§3) The dose-response curves were fitted using the GraphPad Prism program and the following equation: y=[(ymax−ymin)/(1+(x/EC50)n)]+ymin where EC50 is the concentration of the compound necessary to obtain the half maximal effect and n is the Hill coefficient.

mGlu8 = mGlu8 (Homo sapiens (Human), UniProt O00222); test: Agonist activity on mGlu8 in transfected HEK293 cells, intracellular calcium release (Fluo4-AM); settings: for mGlu8/4 EC50 ratio: ratio of mGlu8 EC50 to mGlu4 EC50; for EC50: transfected cells, calcium release, read-out: mGlu8 EC50 μM (n)
Source text: as §1, §2, §3

mGlu7 [1] = target: mGlu7 (Homo sapiens (Human), UniProt Q14831); test: Agonist activity on mGlu7 in transfected HEK293 cells, intracellular calcium release (Fluo4-AM); settings: transfected cells, calcium release; read-out: mGlu7 EC50 μM (n)
Source text: as §1, §2, §3

mGlu7 [2] = test: as above; settings: ratio of mGlu7 EC50 to mGlu4 EC50
Source text: as §1, §2, §3

Chain of mGlu7 (Homo sapiens (Human), UniProt Q14831) (Q14831 35-915): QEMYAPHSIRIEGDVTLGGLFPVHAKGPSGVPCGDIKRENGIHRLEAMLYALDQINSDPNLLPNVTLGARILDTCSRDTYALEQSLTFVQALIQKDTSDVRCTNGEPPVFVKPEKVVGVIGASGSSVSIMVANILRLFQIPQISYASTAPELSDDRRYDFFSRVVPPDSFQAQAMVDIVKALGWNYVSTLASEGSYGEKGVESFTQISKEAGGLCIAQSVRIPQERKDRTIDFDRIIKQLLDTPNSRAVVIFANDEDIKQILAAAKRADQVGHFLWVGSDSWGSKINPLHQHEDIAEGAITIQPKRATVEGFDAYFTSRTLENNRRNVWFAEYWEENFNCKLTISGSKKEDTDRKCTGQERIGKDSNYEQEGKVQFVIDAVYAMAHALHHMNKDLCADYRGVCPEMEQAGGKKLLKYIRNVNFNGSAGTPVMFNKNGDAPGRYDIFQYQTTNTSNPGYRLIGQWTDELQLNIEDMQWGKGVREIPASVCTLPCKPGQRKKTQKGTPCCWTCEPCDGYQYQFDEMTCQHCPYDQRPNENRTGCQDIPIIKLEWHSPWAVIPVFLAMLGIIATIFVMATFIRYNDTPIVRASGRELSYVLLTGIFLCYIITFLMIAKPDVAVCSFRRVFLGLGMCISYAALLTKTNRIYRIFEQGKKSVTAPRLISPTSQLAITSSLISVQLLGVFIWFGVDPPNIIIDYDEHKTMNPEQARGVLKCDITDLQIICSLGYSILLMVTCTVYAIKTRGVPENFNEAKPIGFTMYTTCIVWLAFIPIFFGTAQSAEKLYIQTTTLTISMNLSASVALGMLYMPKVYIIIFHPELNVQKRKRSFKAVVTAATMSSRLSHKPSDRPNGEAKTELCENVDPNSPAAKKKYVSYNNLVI
Chain of mGlu8 (O00222 34-908): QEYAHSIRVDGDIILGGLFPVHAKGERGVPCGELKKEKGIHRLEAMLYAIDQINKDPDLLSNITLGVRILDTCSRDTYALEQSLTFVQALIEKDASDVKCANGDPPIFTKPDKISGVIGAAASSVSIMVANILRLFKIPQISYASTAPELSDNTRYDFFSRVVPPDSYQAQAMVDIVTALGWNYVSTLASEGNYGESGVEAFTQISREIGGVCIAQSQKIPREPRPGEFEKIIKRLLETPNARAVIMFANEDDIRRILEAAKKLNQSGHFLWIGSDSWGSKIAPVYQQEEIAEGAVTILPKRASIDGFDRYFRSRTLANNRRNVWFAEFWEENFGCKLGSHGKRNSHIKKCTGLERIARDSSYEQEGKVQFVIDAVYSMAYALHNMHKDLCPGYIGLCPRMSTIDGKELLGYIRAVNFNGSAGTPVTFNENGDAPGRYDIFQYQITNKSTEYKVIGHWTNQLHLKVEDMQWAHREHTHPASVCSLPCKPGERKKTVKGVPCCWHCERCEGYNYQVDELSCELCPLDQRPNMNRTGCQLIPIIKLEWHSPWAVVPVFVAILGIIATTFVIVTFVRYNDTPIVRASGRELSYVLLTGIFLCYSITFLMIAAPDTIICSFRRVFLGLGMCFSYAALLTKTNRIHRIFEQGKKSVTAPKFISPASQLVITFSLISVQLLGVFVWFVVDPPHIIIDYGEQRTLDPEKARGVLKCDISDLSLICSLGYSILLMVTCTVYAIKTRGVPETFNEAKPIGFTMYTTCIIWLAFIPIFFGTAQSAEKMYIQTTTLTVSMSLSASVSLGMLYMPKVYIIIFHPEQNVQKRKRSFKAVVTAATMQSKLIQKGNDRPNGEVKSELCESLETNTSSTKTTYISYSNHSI
Chain of mGlu4 (Q14833 33-912): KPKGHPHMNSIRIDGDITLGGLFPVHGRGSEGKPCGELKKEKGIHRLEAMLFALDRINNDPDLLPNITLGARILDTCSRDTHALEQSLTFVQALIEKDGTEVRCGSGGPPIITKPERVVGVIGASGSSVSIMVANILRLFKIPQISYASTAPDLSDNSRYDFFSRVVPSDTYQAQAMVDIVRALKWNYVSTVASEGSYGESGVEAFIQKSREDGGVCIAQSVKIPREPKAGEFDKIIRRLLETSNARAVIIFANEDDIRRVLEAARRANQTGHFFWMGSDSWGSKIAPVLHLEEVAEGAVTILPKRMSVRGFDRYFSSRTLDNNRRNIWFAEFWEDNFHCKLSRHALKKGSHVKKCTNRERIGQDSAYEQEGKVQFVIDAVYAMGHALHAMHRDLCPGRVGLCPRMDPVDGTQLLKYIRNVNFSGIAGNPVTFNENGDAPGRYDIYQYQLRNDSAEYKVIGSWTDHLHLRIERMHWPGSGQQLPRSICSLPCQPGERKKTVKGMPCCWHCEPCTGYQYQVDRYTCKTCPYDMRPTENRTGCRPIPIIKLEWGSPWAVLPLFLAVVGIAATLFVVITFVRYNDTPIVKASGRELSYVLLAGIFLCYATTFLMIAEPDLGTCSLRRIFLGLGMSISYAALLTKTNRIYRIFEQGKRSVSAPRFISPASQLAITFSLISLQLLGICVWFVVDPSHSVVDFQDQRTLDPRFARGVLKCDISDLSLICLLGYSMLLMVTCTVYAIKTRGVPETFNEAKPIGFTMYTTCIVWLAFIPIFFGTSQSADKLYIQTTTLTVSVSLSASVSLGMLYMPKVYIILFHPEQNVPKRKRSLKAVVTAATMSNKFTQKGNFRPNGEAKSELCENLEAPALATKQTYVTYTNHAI

| SMILES | EC50 (mGlu4) | mGlu8/4 EC50 ratio (mGlu8) | EC50 (mGlu8) | EC50 (mGlu7 [1]) | mGlu7/4 EC50 ratio (mGlu7 [2]) | mGlu8/4 EC50 ratio (mGlu8; Hydrochloride) |
| --- | --- | --- | --- | --- | --- | --- |
| N[C@@H](CCP(=O)(O)C(O)c1ccc(CCC(=O)O)cc1)C(=O)O (stereo partly drawn) [Derivative 12, [((3S)-3-Amino-3-carboxy)propyl][(4-(carboxyethyl)phenyl)hydroxymethyl]phosphinic Acid] | 0.98 ± 0.18 µM | 50 | 48.7 ± 9.6 µM | 37 ± 5 µM | 38 |  |
| N[C@@H](CCP(=O)(O)C(O)c1ccc(SCC(=O)O)c([N+](=O)[O-])c1)C(=O)O (stereo in doubt) [Derivative 25, 2-amino-4-(((4-(carboxymethylthio)-3-nitrophenyl)(hydroxy)methyl)(hydroxy)phosphoryl)butanoic acid] | 1.1 ± 0.36 µM | 10.4 | 11.5 µM | 15.2 ± 3.9 µM | 1.4 |  |
| N[C@@H](CCP(=O)(O)C(O)c1ccc(OCP(=O)(O)O)cc1)C(=O)O (stereo partly drawn) [Derivative 14, [((3S)-3-Amino-3-carboxy)propyl][(4-phosphonomethoxyphenyl)hydroxymethyl]phosphinic Acid] | 0.37 ± 0.12 µM | 303 | 112 ± 46 µM | 34 ± 10 µM | 92 |  |
| N[C@@H](CCP(=O)(O)C(O)c1ccc(SCC(=O)O)cc1)C(=O)O (stereo in doubt) [Derivative 26, 2-amino-4-(((4-(carboxymethylthio)phenyl)(hydroxy)methyl)(hydroxy)phosphoryl)butanoic acid] | 0.21 ± 0.04 µM | 5.9 | 1.23 ± 0.48 µM | 13 ± 1.1 µM | 62 |  |
| COc1cc(CP(=O)(O)CC[C@H](N)C(=O)O)ccc1OCC(=O)O (stereo in doubt) [Derivative 31, 2-amino-4-((4-(carboxymethoxy)-3-methoxybenzyl)(hydroxy)phosphoryl)butanoic acid] | 7.41 ± 1.55 µM | >40 | > 300 µM |  |  |  |
| N[C@@H](CCP(=O)(O)Cc1ccc(OCC(=O)O)c(OC(F)(F)F)c1)C(=O)O (stereo in doubt) [Derivative 32, 2-amino-4-((4-(carboxymethoxy)-3-(trifluoromethoxy)benzyl)(hydroxy)phosphoryl)butanoic acid] | 1.22 ± 0.15 µM | >82 | > 100 µM | 16.2 ± 3.5 µM | 13 |  |
| COc1cc(CP(=O)(O)CC[C@H](N)C(=O)O)cc(Cl)c1OCC(=O)O (stereo in doubt) [Derivative 35, 2-amino-4-((4-(carboxymethoxy)-3-chloro-5-methoxybenzyl)(hydroxy)phosphoryl)butanoic acid] | 6.2 ± 0.58 µM | 6 | 38.2 ± 7.1 µM | > 300 µM | >48 |  |
| N[C@@H](CCP(=O)(O)C(O)c1ccc(OCC(=O)O)c(OC(F)(F)F)c1)C(=O)O (stereo in doubt) [Derivative 20, 2-amino-4-(((4-(carboxymethoxy)-3-(trifluoromethoxy)phenyl)(hydroxy)methyl)(hydroxy)phosphoryl)butanoic acid] | 0.06 ± 0.02 µM | 927 | 55.6 ± 12 µM | 1.97 ± 0.34 µM | 33 |  |
| CC(Oc1ccc(C(O)P(=O)(O)CC[C@H](N)C(=O)O)cc1)C(=O)O (stereo in doubt) [Derivative 29, 2-amino-4-(((4-(1-carboxyethoxy)phenyl)(hydroxy)methyl)(hydroxy)phosphoryl)butanoic acid] | 0.95 ± 0.16 µM | 15 | 14.3 ± 5.6 µM | 103 ± 7 µM | 109 |  |
| N[C@@H](CCP(=O)(O)C(O)c1ccc(OCC(=O)O)c(C(F)(F)F)c1)C(=O)O (stereo in doubt) [Derivative 21, 2-amino-4-(((4-(carboxymethoxy)-3-(trifluoromethyl)phenyl)(hydroxy)methyl)(hydroxy)phosphoryl)butanoic acid] | 0.9 ± 0.06 µM | 8 | 6.86 ± 1.83 µM | 35.5 ± 4 µM | 39 |  |
| COc1cc(CP(=O)(O)CC[C@H](N)C(=O)O)cc(F)c1OCC(=O)O (stereo in doubt) [Derivative 34, 2-amino-4-((4-(carboxymethoxy)-3-fluoro-5-methoxybenzyl)(hydroxy)phosphoryl)butanoic acid] | 3.09 ± 0.62 µM | 3 | 9.17 ± 2.37 µM | 232 ± 85 µM | 75 |  |
| N[C@@H](CCP(=O)(O)C(O)c1ccc(OCC(=O)O)c(OCC(=O)O)c1)C(=O)O (stereo partly drawn) [Derivative 18, [((3S)-3-Amino-3-carboxy)propyl][(3,4-di(carboxymethoxy)phenyl)hydroxymethyl]phosphinic Acid] | 2.5 ± 1.1 µM | 6 | 14.1 ± 7.3 µM |  |  |  |

Results, then the molecule that gave them:

| EC50 (mGlu4) | mGlu8/4 EC50 ratio (mGlu8) | EC50 (mGlu8) | EC50 (mGlu7 [1]) | mGlu7/4 EC50 ratio (mGlu7 [2]) | mGlu8/4 EC50 ratio (mGlu8; Hydrochloride) | SMILES |
| --- | --- | --- | --- | --- | --- | --- |
| 7.6 ± 2 µM |  | 71 ± 25 µM |  |  |  | N[C@@H](CCP(=O)(O)C(O)c1cccc(OCC(=O)O)c1)C(=O)O (mixture of isomers) [Derivative 15, [((3S)-3-Amino-3-carboxy)propyl][(3-(carboxymethoxy)phenyl)hydroxymethyl]phosphinic Acid] |
| 4 ± 0.6 µM | 1.9 | 7.4 ± 1.2 µM | 65 ± 13 µM | 16 |  | N[C@@H](CCP(=O)(O)C(O)c1ccc(OCC(=O)O)c(C(=O)O)c1)C(=O)O (stereo in doubt) [Derivative 23, 5-(((3-amino-3-carboxypropyl)(hydroxy)phosphoryl)(hydroxy)methyl)-2-(carboxymethoxy)benzoic acid] |
| 13 ± 2.9 µM |  | 29.3 ± 7.2 µM |  |  |  | N[C@@H](CCP(=O)(O)C(O)c1cccc(OCC(=O)O)c1)C(=O)O (single isomer, unassigned) [Derivative 17, Hydrochloride] |
|  |  |  |  |  | 7.4 | N[C@@H](CCP(=O)(O)C(O)c1cccc(OCC(=O)O)c1)C(=O)O (stereo partly drawn) [Derivative 16, [((3S)-3-Ammonium-3-carboxy)propyl][(3-(carboxymethoxy)phenyl)hydroxymethyl]phosphinic Acid Hydrochloride] |
|  | 9.4 |  |  |  |  | N[C@@H](CCP(=O)(O)C(O)c1cccc(OCC(=O)O)c1)C(=O)O (stereo partly drawn) [Derivative 15, [((3S)-3-Amino-3-carboxy)propyl][(3-(carboxymethoxy)phenyl)hydroxymethyl]phosphinic Acid] |
| 0.26 ± 0.07 µM | 6.1 | 1.59 ± 0.82 µM | 11.2 ± 3.9 µM | 43 |  | N[C@@H](CCP(=O)(O)C(O)c1ccc(OCC(=O)O)c([N+](=O)[O-])c1)C(=O)O (stereo in doubt) [Derivative 24, 2-amino-4-(((4-(carboxymethoxy)-3-nitrophenyl)(hydroxy)methyl)(hydroxy)phosphoryl)butanoic acid] |
| 0.15 ± 0.03 µM | 193 | 28 ± 4 µM | 6.6 ± 1.5 µM | 44 |  | COc1cc(C(O)P(=O)(O)CC[C@H](N)C(=O)O)cc(I)c1OCC(=O)O (some centres unmarked) [Derivative 8] |
| 1.1 ± 0.4 µM | 31 | 34 ± 19 µM | 15 ± 3.6 µM | 14 |  | N[C@@H](CCP(=O)(O)C(O)c1ccc(OCC(=O)O)c(O)c1)C(=O)O (stereo in doubt) [Derivative 22, 2-amino-4-(((4-(carboxymethoxy)-3-hydroxyphenyl)(hydroxy)methyl)(hydroxy)phosphoryl)butanoic acid] |
| 0.13 ± 0.02 µM | 341 | 44 ± 7 µM | 11.4 ± 0.1 µM | 88 |  | COc1cc(C(O)P(=O)(O)CC[C@H](N)C(=O)O)cc(Cl)c1OCC(=O)O (some centres unmarked) [Derivative 7] |
| 4.9 ± 1 µM |  | 36 ± 18 µM |  |  |  | N[C@@H](CCP(=O)(O)C(O)c1cccc(OCC(=O)O)c1)C(=O)O (single isomer, unassigned) [Derivative 16, Hydrochloride] |
| 0.38 ± 0.09 µM | 484 | 109 ± 15 µM | 22.9 ± 7.8 µM | 60 |  | N[C@@H](CCP(=O)(O)C(O)c1cc(Cl)c(OCC(=O)O)c(Cl)c1)C(=O)O (some centres unmarked) [Derivative 9] |
|  |  |  |  |  | 2.3 | N[C@@H](CCP(=O)(O)C(O)c1cccc(OCC(=O)O)c1)C(=O)O (stereo partly drawn) [Derivative 17, [((3S)-3-Ammonium-3-carboxy)propyl][(3-(carboxymethoxy)phenyl)hydroxymethyl]phosphinic Acid Hydrochloride] |
